No end group written: not given here.

Assay [1] concerns delayed-type hypersensitivity (DTH) response. To be noted: DTH model in vivo; cited from earlier work.
Another assay concerns the target hKv1.3 (Homo sapiens, UniProt P22001). The experiment in a line: hKv1.3 % inhibition at 1 uM (Table 1). To be noted: for inhibition at 1 µM: read-out: hKv1.3 % inh. 1 uM. Format: cell-based.
Another assay deals with hKv1.5 (Homo sapiens, UniProt P22460). The experiment in a line: hKv1.5 % inhibition at 300 nM (Table 1). Format: cell-based. To be noted: for inhibition at 0.3 µM: read-out: hKv1.5 % inh. 300 nM.
Sequence of hKv1.5 (P22460 whole entry): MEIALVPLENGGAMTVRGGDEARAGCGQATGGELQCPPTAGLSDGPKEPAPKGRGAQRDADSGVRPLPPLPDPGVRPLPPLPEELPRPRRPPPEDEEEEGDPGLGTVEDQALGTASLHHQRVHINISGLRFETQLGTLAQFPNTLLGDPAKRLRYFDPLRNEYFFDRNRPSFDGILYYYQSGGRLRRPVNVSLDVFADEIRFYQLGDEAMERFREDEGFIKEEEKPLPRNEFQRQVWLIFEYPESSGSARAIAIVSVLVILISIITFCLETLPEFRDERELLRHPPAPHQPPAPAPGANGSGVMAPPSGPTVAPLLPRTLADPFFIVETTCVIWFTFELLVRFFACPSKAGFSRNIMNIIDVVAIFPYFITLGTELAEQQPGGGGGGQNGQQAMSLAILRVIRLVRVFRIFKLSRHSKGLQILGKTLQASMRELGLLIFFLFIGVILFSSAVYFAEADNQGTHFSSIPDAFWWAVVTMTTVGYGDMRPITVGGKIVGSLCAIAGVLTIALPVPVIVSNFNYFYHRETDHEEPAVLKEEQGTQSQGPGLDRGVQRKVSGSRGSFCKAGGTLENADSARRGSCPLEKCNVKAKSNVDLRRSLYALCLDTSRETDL

Sequence of hKv1.3 (P22001 whole entry): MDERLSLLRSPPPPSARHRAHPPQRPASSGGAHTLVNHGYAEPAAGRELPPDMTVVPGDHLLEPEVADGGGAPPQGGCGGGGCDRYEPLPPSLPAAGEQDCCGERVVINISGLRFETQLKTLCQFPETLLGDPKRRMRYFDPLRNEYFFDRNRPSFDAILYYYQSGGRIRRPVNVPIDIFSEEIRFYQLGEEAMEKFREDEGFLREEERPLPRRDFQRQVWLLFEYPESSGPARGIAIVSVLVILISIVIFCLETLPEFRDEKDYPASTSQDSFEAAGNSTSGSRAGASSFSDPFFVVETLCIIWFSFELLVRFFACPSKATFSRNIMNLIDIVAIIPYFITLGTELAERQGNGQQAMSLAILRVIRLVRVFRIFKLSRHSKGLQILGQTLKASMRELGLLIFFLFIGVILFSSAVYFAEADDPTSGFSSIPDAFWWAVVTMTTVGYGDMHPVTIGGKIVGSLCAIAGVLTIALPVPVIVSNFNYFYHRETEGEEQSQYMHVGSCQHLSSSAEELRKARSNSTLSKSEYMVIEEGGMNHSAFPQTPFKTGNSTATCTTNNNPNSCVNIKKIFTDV

In the case of `O=c1ccc2c(OCCCCOc3ccccc3)c3ccoc3cc2o1` [PAP-1], the “suppression of DTH response” value in assay [1] was “effective”.
On to “margatoxin (TIINVKCTSPKQCLPPCKAQFGQSAGAKCMNGKCKCYPH; ends and bridges not checked; cysteine pairing not given here; UniProt P40755 1-39, looked up) [MgTX]”, for which, in assay [1], the “suppression of DTH response” value is “effectively suppressed”.
As for `C=C1C[C@@]2(O)[C@@H]3CC[C@@]4(C)[C@@H]5C=CC(=O)OC[C@]5(C(C)OC(C)=O)[C@@H](OC(C)=O)[C@@H](OC(C)=O)[C@@H]4[C@@]3(C)[C@H](OC(C)=O)[C@H](OC(C)=O)[C@@]2(C)C2(C(=O)OC)O[C@H]12` (stereo partly shown) [Correolide], in assay [1], the “suppression of DTH response” value is reported as “effective”.
For `Cn1ccc(S(=O)(=O)N(Cc2ccc(Cl)cc2)c2ccc3c(c2)C(=O)NCC3(C)C)n1` [Example 16, 1-Methyl-1H-pyrazole-3-sulfonic acid (4-chloro-benzyl)-(4,4-dimethyl-1-oxo-1,2,3,4-tetrahydro-isoquinolin-7-yl)-amide], at hKv1.3, the inhibition at 1 µM turned out to be 88.3%. Besides, the inhibition at 0.3 µM on hKv1.5 was determined as 64.2%.
As to `CCN1Cc2cc(N(Cc3ccc(Cl)cc3)S(=O)(=O)c3cccc(C#N)c3)ccc2C1=O` [Example 12, N-(4-Chloro-benzyl)-3-cyano-N-(2-ethyl-1-oxo-2,3-dihydro-1H-isoindol-5-yl) benzene sulfonamide], the “hKv1.3 % inh. 1 uM” value at hKv1.3 is listed as 93.0%. Moreover, on hKv1.5, the “hKv1.5 % inh. 300 nM” value turned out to be 63.2%.
On to `CCN1Cc2ccc(N(Cc3ccc(Cl)cc3)S(=O)(=O)c3cccnc3)cc2C1=O` [Example 2, Pyridine-3-sulfonic acid (40chloro-benzyl)-(2-ethyl-3-oxo-2,3-dihydro-1H-isoindol-5-yl)-amide], for which the “hKv1.3 % inh. 1 uM” value on hKv1.3 is 97.2%. In addition, the “hKv1.5 % inh. 300 nM” value on hKv1.5 is 65.0%.
As to `Cn1ccc(S(=O)(=O)N(Cc2ccc(Cl)cc2)c2ccc3c(c2)C(=O)NCC3)n1` [Example 7, 1-Methyl-1H-pyrazole-3-sulfonic acid (4-chloro-benzyl)-(1-oxo-1,2,3,4-tetrahydro-isoquinolin-7-yl)-amide], at hKv1.3, the inhibition at 1 µM came out at 95.5%. Also, at hKv1.5, the inhibition at 0.3 µM turned out to be 42.6%.
Take `CCN1CCc2ccc(N(Cc3ccc(Cl)cc3)S(=O)(=O)c3ccn(C)n3)cc2C1=O` [Example 1, 1-Methyl-1H-pyrazole-3-sulfonic acid (4-chloro-benzyl)-(2-ethyl-1-oxo-1,2,3,4-tetrahydro-isoquinolin-7-yl)-amide]: the inhibition at 1 µM on hKv1.3 came to 99.6%. Besides, at hKv1.5, the inhibition at 0.3 µM was determined as 82.4%.
For `CN1CCc2ccc(N(Cc3ccc(Cl)cc3)S(=O)(=O)c3ccn(C)n3)cc2C1=O` [Example 9, 1-Methyl-1H-pyrazole-3-sulfonic acid (4-chloro-benzyl)-(2-methyl-1-oxo-1,2,3,4-tetrahydro-isoquinolin-7-yl)-amide], in that order: 94.5% and 76.4%.
As for `CCN1CCc2cc(N(Cc3ccccc3)S(=O)(=O)c3ccn(C)n3)ccc2C1=O` [Example 19, 1-Methyl-1H-pyrazole-3-sulfonic acid benzyl (2-ethyl-1-oxo-1,2,3,4-tetrahydro-isoquinolin-6-yl)-amide], the “hKv1.3 % inh. 1 uM” value at hKv1.3 was 74.3%. Moreover, the “hKv1.5 % inh. 300 nM” value on hKv1.5 turned out to be 25.4%.
Take `CC1(C)CNC(=O)c2cc(N(Cc3ccc(Cl)cc3)S(=O)(=O)c3cccnc3)ccc21` [Example 15]: the “hKv1.3 % inh. 1 uM” value at hKv1.3 was determined as 88.9%. The “hKv1.5 % inh. 300 nM” value at hKv1.5 was 70.0%.
Turning to `Cn1cnc(S(=O)(=O)N(Cc2ccc(Cl)cc2)c2ccc3c(c2)C(=O)NCC3(C)C)c1` [Example 20, 1-Methyl-1H-imidazole-4-sulfonic acid (4-chloro-benzyl)-(4,4-dimethyl-1-oxo-1,2,3,4-tetrahydro-isoquinolin-7-yl)-amide], the inhibition at 1 µM at hKv1.3 came out at 72.6%. In addition, on hKv1.5, the inhibition at 0.3 µM came out at 34.1%.
As to `O=C1NCCc2ccc(N(Cc3ccc(Cl)cc3)S(=O)(=O)c3cccnc3)cc21` [Example 13, Pyridine-3-sulfonic acid (4-chloro-benzyl)-(1-oxo-1,2,3,4-tetrahydro-isoquinolin-7-yl)-amide], on hKv1.3, the inhibition at 1 µM amounted to 90.5%. Besides, the inhibition at 0.3 µM at hKv1.5 was found to be 36%.
For `CCN1Cc2ccc(N(Cc3ccc(Cl)cc3)S(=O)(=O)c3cccc(C#N)c3)cc2C1=O` [Example 11, N-(4-Chloro-benzyl)-3-cyano-n-(2-ethyl-3-oxo-2,3-dihydro-1H-isoindol-5-yl)-benzene sulfonamide], the “hKv1.3 % inh. 1 uM” value on hKv1.3 is reported as 93.8%. The “hKv1.5 % inh. 300 nM” value at hKv1.5 turned out to be 86.9%.
With `O=C1c2cc(N(Cc3ccc(Cl)cc3)S(=O)(=O)c3cccnc3)ccc2CCN1CCO` [Example 5, Pyridine-3-sulfonic acid (4-chloro-benzyl)-[2-(2-hydroxy-ethyl)-1-oxo-1,2,3,4-tetrahydro-isoquinolin-7-yl]-amide], at hKv1.3, the inhibition at 1 µM worked out at 96.4%. Moreover, the inhibition at 0.3 µM on hKv1.5 turned out to be 76%.
As for `CCN1Cc2ccc(N(Cc3ccc(Cl)cc3)S(=O)(=O)c3cn(C)cn3)cc2C1=O` [Example 14, 1-Methyl-1H-imidazole-4-sulfonic acid (4-chloro-benzyl)-(2-ethyl-3-oxo-2,3-dihydro-1H-isoindol-5-yl)-amide], the inhibition at 1 µM on hKv1.3 turned out to be 89.7%. The inhibition at 0.3 µM on hKv1.5 turned out to be 27.1%.
For the compound `N#Cc1cccc(S(=O)(=O)N(Cc2ccc(Cl)cc2)c2ccc3c(c2)C(=O)NCC3)c1` [Example 8, N-(4-Chloro-benzyl)-3-cyano-N-(1-oxo-1,2,3,4-tetrahydro-isoquinolin-7-yl)-benzenesulfonamide], on hKv1.3, the inhibition at 1 µM amounted to 94.6%. Besides, at hKv1.5, the inhibition at 0.3 µM was 91.2%.
Regarding “1-Methyl-1H-imidazole-4-sulfonic acid (4-chloro-benzyl)-(2-ethyl-1-oxo-2,3-dihydro-1H-isoindol-4-yl)-amide [Example 21]”, on hKv1.3, the “hKv1.3 % inh. 1 uM” value was found to be 69.8%. In addition, at hKv1.5, the “hKv1.5 % inh. 300 nM” value stood at 23.8%.
Consider `Cn1ccc(S(=O)(=O)N(Cc2ccc(Cl)cc2)c2ccc3c(c2)C(=O)N(CCO)CC3)n1` [Example 10, 1-Methyl-1H-pyrazole-3-sulfonic acid (4-chloro-benzyl)-[2-(2-hydroxy-ethyl)-1-oxo-1,2,3,4-tetrahydro-isoquinolin-7-yl]-amide], for which the inhibition at 1 µM at hKv1.3 was 94.2%. In addition, on hKv1.5, the inhibition at 0.3 µM is 47.1%.
In the case of `CCN1Cc2ccc(N(Cc3ccc(Cl)cc3)S(=O)(=O)c3ccn(C)n3)cc2C1=O` [Example 4, 1-Methyl-1H-pyrazole-3-sulfonic acid (4-chloro-benzyl)-(2-ethyl-3-oxo-2,3-dihydro-1H-isoindol-5-yl)-amide], the inhibition at 1 µM at hKv1.3 came to 96.6%. In addition, at hKv1.5, the inhibition at 0.3 µM stood at 63.8%.
On to “N-(4-Chloro-benzyl)-3-cyano-N-(1-oxo-1,2,3,4-tetrahydro-isoquinolin-7-yl)-benzenesulfonamide [Example 3]”, for which the “hKv1.3 % inh. 1 uM” value on hKv1.3 stood at 97.2%. At hKv1.5, the “hKv1.5 % inh. 300 nM” value was found to be 87.8%.
With `CCN1Cc2cc(N(Cc3ccc(Cl)cc3)S(=O)(=O)c3ccn(C)n3)ccc2C1=O` [Example 18, 1-Methyl-1H-pyrazole-3-sulfonic acid (4-chloro-benzyl)-(2-ethyl-1-oxo-2,3-dihydro-1H-isoindol-5-yl)-amide], the inhibition at 1 µM on hKv1.3 was determined as 75.2%. The inhibition at 0.3 µM at hKv1.5 was 77.3%.
As to `CC(C)N1C(=O)c2ccc(N(Cc3ccc(Cl)cc3)S(=O)(=O)c3cn(C)cn3)cc2C1=O` [Example 17, 1-Methyl-1H-imidazole-4-sulfonic acid (4-chloro-benzyl)-(2-isopropyl-1,3-dioxo-2,3-dihydro-1-H-isoindol-5-yl)-amide], at hKv1.3, the “hKv1.3 % inh. 1 uM” value is 79.7%. For the same compound, the “hKv1.5 % inh. 300 nM” value on hKv1.5 came to 58.0%.
With `CCN1CC(C)(C)c2ccc(N(Cc3ccc(Cl)cc3)S(=O)(=O)c3cn(C)cn3)cc2C1=O` [Example 6, 1-Methyl-1H-imidazole-4-sulfonic acid (4-chloro-benzyl)-(2-ethyl-4,4-dimethyl-1-oxo-1,2,3,4-tetrahydro-isoquinolin-7-yl)-amide], the inhibition at 1 µM at hKv1.3 turned out to be 96.1%. Besides, at hKv1.5, the inhibition at 0.3 µM stood at 70.1%.
The like results for `CCN1Cc2cc(N(Cc3ccc(Cl)cc3)S(=O)(=O)c3cn(C)cn3)ccc2C1=O` [Example 22, 1-Methyl-1H-imidazole-4-sulfonic acid (4-chloro-benzyl)-(2-ethyl-1-oxo-2,3-dihydro-1H-isoindol-5-yl)-amide] were, in that order, 67.9% and 30.6%.
Regarding `CCN1CCc2cc(N(Cc3ccccc3)S(=O)(=O)c3cn(C)cn3)ccc2C1=O` [Example 23, 1-Methyl-1H-imidazole-4-sulfonic acid benzyl-(2-ethyl-1-oxo-1,2,3,4-tetrahydro-isoquinolin-6-yl)-amide], on hKv1.3, the inhibition at 1 µM is 58%. For the same compound, the inhibition at 0.3 µM on hKv1.5 came out at 26.5%.
